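Protocol summary: plate cells (96-well), add compound at 5 concentrations, incubate 48 h, interpolate endpoints linearly. At the TGI there is no net growth.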
Legend:
Experiment in all cases: NCI tumour cell line growth inhibition, 48 h
IGROV1 ovarian = system: IGROV1 ovarian
SK-MEL-28 melanoma = system: SK-MEL-28 melanoma
NCI-H23 lung = system: NCI-H23 lung
OVCAR-4 ovarian = system: OVCAR-4 ovarian
SN12C renal = system: SN12C renal
SNB-19 CNS = system: SNB-19 CNS
XF 498 CNS = system: XF 498 CNS
ACHN renal = system: ACHN renal
SF-295 CNS = system: SF-295 CNS
COLO 205 colon = system: COLO 205 colon
HOP-18 NSCLC = system: HOP-18 NSCLC
MOLT-4 leukemia = system: MOLT-4 leukemia
HL-60(TB) leukemia = system: HL-60(TB) leukemia
OVCAR-3 ovarian = system: OVCAR-3 ovarian
SNB-78 CNS = system: SNB-78 CNS
SW-620 colon = system: SW-620 colon
SF-539 CNS = system: SF-539 CNS
UACC-257 melanoma = system: UACC-257 melanoma
CCRF-CEM leukemia = system: CCRF-CEM leukemia
SNB-75 CNS = system: SNB-75 CNS
SK-OV-3 ovarian = system: SK-OV-3 ovarian
DMS 273 small cell lung = system: DMS 273 small cell lung
M19-MEL melanoma = system: M19-MEL melanoma
U251 CNS = system: U251 CNS
RPMI-8226 leukemia = system: RPMI-8226 leukemia
M14 melanoma = system: M14 melanoma
TK-10 renal = system: TK-10 renal
HCT-15 colon = system: HCT-15 colon
UACC-62 melanoma = system: UACC-62 melanoma
A498 renal = system: A498 renal
NCI-H460 lung = system: NCI-H460 lung
LOX IMVI melanoma = system: LOX IMVI melanoma
A549 NSCLC = system: A549 NSCLC
RXF 393 renal = system: RXF 393 renal
HT29 colon = system: HT29 colon
DMS 114 small cell lung = system: DMS 114 small cell lung
KM20L2 colon = system: KM20L2 colon
SK-MEL-5 melanoma = system: SK-MEL-5 melanoma
K-562 leukemia = system: K-562 leukemia
HCT-116 colon = system: HCT-116 colon
OVCAR-8 ovarian = system: OVCAR-8 ovarian
LXFL 529 NSCLC = system: LXFL 529 NSCLC
EKVX NSCLC = system: EKVX NSCLC
NCI/ADR-RES ovarian = system: NCI/ADR-RES ovarian
DU-145 prostate = system: DU-145 prostate
HOP-62 NSCLC = system: HOP-62 NSCLC
HS 578T breast = system: HS 578T breast
MALME-3M melanoma = system: MALME-3M melanoma
MDA-MB-435 = system: MDA-MB-435
MCF7 breast = system: MCF7 breast
BT-549 breast = system: BT-549 breast
MDA-N = system: MDA-N
HCC-2998 colon = system: HCC-2998 colon
T-47D breast = system: T-47D breast
NCI-H226 lung = system: NCI-H226 lung
UO-31 renal = system: UO-31 renal
SK-MEL-2 melanoma = system: SK-MEL-2 melanoma
KM12 colon = system: KM12 colon
NCI-H522 lung = system: NCI-H522 lung
MDA-MB-231 breast = system: MDA-MB-231 breast
OVCAR-5 ovarian = system: OVCAR-5 ovarian
PC-3 prostate = system: PC-3 prostate
SF-268 CNS = system: SF-268 CNS
SR leukemia = system: SR leukemia
786-0 renal = system: 786-0 renal
HOP-92 NSCLC = system: HOP-92 NSCLC

Measured: TGI

CCOC(=O)COc1ccc(OC)c2c1C(=O)CCC2
not listed: NCI/ADR-RES ovarian | DU-145 prostate | HOP-62 NSCLC | HS 578T breast | MALME-3M melanoma | MDA-MB-435 | MCF7 breast | BT-549 breast | MDA-N | HCC-2998 colon | T-47D breast | NCI-H226 lung | UO-31 renal | SK-MEL-2 melanoma | KM12 colon | NCI-H522 lung | MDA-MB-231 breast | OVCAR-5 ovarian | PC-3 prostate | SF-268 CNS | SR leukemia | 786-0 renal | HOP-92 NSCLC
> 100 µM: all other assays above

COc1ccc(NC(=O)CSc2nnc(-c3ccc(N=Cc4ccc(Cl)cc4)cc3)o2)cc1
> 86.7 µM: SNB-75 CNS
> 80.7 µM: RPMI-8226 leukemia
79.6 µM: DMS 273 small cell lung
> 96.3 µM: M14 melanoma
61.2 µM: SR leukemia
96.6 µM: NCI-H522 lung
56.8 µM: SN12C renal
> 82.7 µM: CCRF-CEM leukemia
45.8 µM: SK-MEL-2 melanoma
> 93.5 µM: NCI-H23 lung
73.2 µM: OVCAR-3 ovarian
> 76.3 µM: NCI-H226 lung
> 70.2 µM: MOLT-4 leukemia
> 80.9 µM: KM12 colon
> 64.7 µM: SF-268 CNS
> 86.9 µM: ACHN renal
> 49.5 µM: HCT-116 colon
31.9 µM: LOX IMVI melanoma
44.9 µM: COLO 205 colon
> 48.8 µM: HL-60(TB) leukemia
77.3 µM: SNB-78 CNS
> 96.7 µM: UACC-257 melanoma
29.1 µM: HCT-15 colon
> 88.6 µM: HOP-62 NSCLC
68.1 µM: HOP-18 NSCLC | M19-MEL melanoma
71.4 µM: HOP-92 NSCLC
80.1 µM: DMS 114 small cell lung
59.2 µM: XF 498 CNS
not listed: SF-539 CNS
> 100 µM: all other assays above

— PubChem BioAssay (NCI)
